In experiment [1] the target is T1, purified recombinant Yck2 (Candida albicans, UniProt A0A1D8PKB4).
T1 construct: Yck2 residues 37-345 were PCR amplified from C. albicans genomic DNA; His6 (N); TEV protease site (N); made in house; host or cells: E. coli BL21(DE3)-Gold
In words: HotSpot kinase assay. Format: biochemical, C. albicans. Here is the method:
IC50s were determined using the in vitro HotSpot kinase assay (purified enzymes, ^33P-ATP, an appropriate substrate and 1 μM ATP). For enzyme inhibition assays, compounds were tested in range of ten concentrations from 10 uM to 0.0005 uM using purified recombinant Yck2. Reaction conditions were 1 uM ATP, one hour incubation with inhibitor, and kinase activity detected using 33-ATP phosphorylation of an appropriately selected peptide substrate.
Yck2 residues 37-345 were PCR amplified from C. albicans genomic DNA and subcloned into the vector pMCSG53, which codes for a N-terminal His6 tag, TEV protease site, followed by the Yck2 protein. E. coli BL21(DE3)-Gold competent cells were transformed with this plasmid and the Yck2 protein was purified using methodology previously described (Stogios et al., ACS Chem. Biol. 13, 1322-1332 (2018)).

For a further experiment, the system named is CaCi2. In words: Antifungal sensitivity testing (broth microdilution MIC). Format: cell-based. The following applies: CaCi2, 96-well broth microdilution, compounds in DMSO. Here is the method:
Minimum inhibitory concentrations (MICs) were determined in flat bottom, 96-well plate format using a modified broth microdilution protocol as previously described (Singh et al., PLoS Pathog. 5, e1000532 (2009); LaFayette et al., PLoS Pathog. 6, 79-80 (2010)). Compounds were formulated in dimethyl sulfoxide (DMSO, Sigma-Aldrich Co.). Each compound was tested in duplicate in at least two independent experiments.
Background: Broth dilution looks for growth in wells or tubes with falling amounts of substance.

≈ marks a conversion by molar mass, not a printed value. Where only a bound is given, the exact number is not on record here.

T1 sequence (A0A1D8PKB4 entry or part of it): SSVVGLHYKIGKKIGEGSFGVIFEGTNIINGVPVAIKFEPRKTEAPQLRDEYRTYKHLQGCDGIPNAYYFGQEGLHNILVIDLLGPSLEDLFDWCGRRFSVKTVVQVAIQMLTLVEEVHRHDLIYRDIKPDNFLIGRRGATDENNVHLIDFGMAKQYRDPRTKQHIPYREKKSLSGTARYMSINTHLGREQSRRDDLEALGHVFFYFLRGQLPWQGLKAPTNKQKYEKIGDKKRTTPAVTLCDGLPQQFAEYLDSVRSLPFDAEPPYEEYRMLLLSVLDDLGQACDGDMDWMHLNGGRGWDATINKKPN

A word on the IC50: it is the concentration that inhibits the measured activity by half. By MIC50 is commonly meant an inhibitory concentration at the 50% level, which refers to growth in some studies and to a panel of isolates in others. Lower therefore signals higher susceptibility. With `O=C(NCC1CCN(CC(O)(Cn2cncn2)c2ccc(F)cc2F)CC1)c1ccc2c(-c3ccncc3)c(-c3ccc(F)cc3)nn2c1` (centres unmarked) [Compound I-147, N-((1-(2-(2,4-difluorophenyl)-2-hydroxy-3-(1H-1,2,4-triazol-1-yl)propyl)piperidin-4-yl)methyl)-2-(4-fluorophenyl)-3-(pyridin-4-yl)pyrazolo[1,5-a]pyridine-6-carboxamide], the IC50 in experiment [1] is 36.8 nM. In the experiment on CaCi2, this molecule displayed an MIC50 of 0.0977 µM (≈ 0.0651 µg/mL). Taken in the same sequence, the figures for `Nc1nccc(-c2c(-c3ccc(F)cc3)ncn2C2CCN(CCCn3c4c(c5cc(Cl)ccc53)CCNC4)CC2)n1` [Compound I-232, 4-(1-(1-(3-(6-chloro-1,2,3,4-tetrahydro-9H-pyrido[3,4-b]indol-9-yl)propyl)piperidin-4-yl)-4-(4-fluorophenyl)-1H-imidazol-5-yl)pyrimidin-2-amine] were 2.61 nM and greater than 25 µM. Taken in the same sequence, the figures for `O=C(NC[C@](O)(Cn1cncn1)c1ccc(F)cc1F)c1ccc2c(-c3ccncc3)c(-c3ccc(F)cc3)nn2c1` [Compound I-116, (S)-N-(2-(2,4-difluorophenyl)-2-hydroxy-3-(1H-1,2,4-triazol-1-yl)propyl)-2-(4-fluorophenyl)-3-(pyridin-4-yl)pyrazolo[1,5-a]pyridine-6-carboxamide] were 7.91 nM and 6.25 µM (≈ 3.56 µg/mL).

As for `Nc1nccc(-c2c(-c3ccc(F)cc3)ncn2C2CCN(CCCC(O)(Cn3cncn3)c3ccc(F)cc3F)CC2)n1` (centres unmarked) [Compound I-58, 5-(4-(5-(2-aminopyrimidin-4-yl)-4-(4-fluorophenyl)-1H-imidazol-1-yl)piperidin-1-yl)-2-(2,4-difluorophenyl)-1-(1H-1,2,4-triazol-1-yl)pentan-2-ol], in experiment [1], the IC50 was determined as 3.19 nM. In the experiment on CaCi2, the MIC50 was greater than 25 µM.

With `Nc1nccc(-c2c(-c3ccc(F)cc3)ncn2C2CCN(C3CCN(CC(O)(Cn4cncn4)c4ccc(F)cc4F)CC3)CC2)n1` (centres unmarked) [Compound I-224], the half-maximal inhibitory concentration (IC50) in experiment [1] was 72.3 nM. In the experiment with CaCi2, the MIC50 was 25 µM (≈ 16.5 µg/mL). Taken in the same sequence, the figures for `O=C(NC[C@@](O)(Cn1cncn1)c1ccc(F)cc1F)c1ccc2c(-c3ccncc3)c(-c3ccc(F)cc3)nn2c1` [Compound I-117, (R)-N-(2-(2,4-difluorophenyl)-2-hydroxy-3-(1H-1,2,4-triazol-1-yl)propyl)-2-(4-fluorophenyl)-3-(pyridin-4-yl)pyrazolo[1,5-a]pyridine-6-carboxamide] were 5.08 nM and 0.195 µM (≈ 0.111 µg/mL).

In the case of `O=C(NC1CCN(CC(O)(Cn2cncn2)c2ccc(F)cc2F)CC1)c1ccc2c(-c3ccncc3)c(-c3ccc(F)cc3)nn2c1` (centres unmarked) [Compound I-100, N-(1-(2-(2,4-difluorophenyl)-2-hydroxy-3-(1H-1,2,4-triazol-1-yl)propyl)piperidin-4-yl)-2-(4-fluorophenyl)-3-(pyridin-4-yl)pyrazolo[1,5-a]pyridine-6-carboxamide], the IC50 in experiment [1] stood at 32.9 nM. The MIC50 with CaCi2 came out at 0.0651 µM (≈ 0.0425 µg/mL). With `O[C@@](CNCc1ccc2c(-c3ccncc3)c(-c3ccc(F)cc3)nn2c1)(Cn1cncn1)c1ccc(F)cc1F` [Compound I-253, (S)-2-(2,4-difluorophenyl)-1-(((2-(4-fluorophenyl)-3-(pyridin-4-yl)pyrazolo[1,5-a]pyridin-6-yl)methyl)amino)-3-(1H-1,2,4-triazol-1-yl)propan-2-ol], the IC50 in experiment [1] was found to be 5.95 nM. The molecule further returned an MIC50 against CaCi2 of 0.137 µM (≈ 0.0761 µg/mL).

Regarding `O=C(NCCC(O)(Cn1cncn1)c1ccc(F)cc1F)c1ccc2c(-c3ccncc3)c(-c3ccc(F)cc3)nn2c1` (centres unmarked) [Compound I-148, N-(3-(2,4-difluorophenyl)-3-hydroxy-4-(1H-1,2,4-triazol-1-yl)butyl)-2-(4-fluorophenyl)-3-(pyridin-4-yl)pyrazolo[1,5-a]pyridine-6-carboxamide], the IC50 in experiment [1] is 1.61 nM. Moreover, in the experiment with CaCi2, the MIC50 turned out to be 6.25 µM (≈ 3.65 µg/mL). Taken in the same sequence, the figures for `OC(CN1CCC(Oc2cccc3c(-c4ccncc4)c(-c4ccc(F)cc4)nn23)CC1)(Cn1cncn1)c1ccc(F)cc1F` (centres unmarked) [Compound I-154, 2-(2,4-difluorophenyl)-1-(4-((2-(4-fluorophenyl)-3-(pyridin-4-yl)pyrazolo[1,5-a]pyridin-7-yl)oxy)piperidin-1-yl)-3-(1H-1,2,4-triazol-1-yl)propan-2-ol] were 176 nM and 0.195 µM (≈ 0.122 µg/mL). Taken in the same sequence, the figures for `Cn1cc(-c2ccnc3c2C(=O)N(CC2CCN(C[C@](O)(Cn4cncn4)c4ccc(F)cc4F)CC2)C3)c(-c2ccc(F)cc2)n1` [Compound I-238, (S)-6-((1-(2-(2,4-difluorophenyl)-2-hydroxy-3-(1H-1,2,4-triazol-1-yl)propyl)piperidin-4-yl)methyl)-4-(3-(4-fluorophenyl)-1-methyl-1H-pyrazol-4-yl)-6,7-dihydro-5H-pyrrolo[3,4-b]pyridin-5-one] were 7.84 nM and 0.781 µM (≈ 0.502 µg/mL). Taken in the same sequence, the figures for `Cn1cc(-c2ccncc2COC2CCN(CC(O)(Cn3cncn3)c3ccc(F)cc3F)CC2)c(-c2ccc(F)cc2)n1` (centres unmarked) [Compound I-90, 2-(2,4-difluorophenyl)-1-(4-((4-(3-(4-fluorophenyl)-1-methyl-1H-pyrazol-4-yl)pyridin-3-yl)methoxy)piperidin-1-yl)-3-(1H-1,2,4-triazol-1-yl)propan-2-ol] were 47.6 nM and 0.586 µM (≈ 0.354 µg/mL). Turning to `Nc1nccc(-c2c(-c3ccc(F)cc3)ncn2C2CCN(CC(O)(Cn3cncn3)c3ccc(F)cc3F)CC2)n1` (centres unmarked) [Compound I-32, 1-(4-(5-(2-aminopyrimidin-4-yl)-4-(4-fluorophenyl)-1H-imidazol-1-yl)piperidin-1-yl)-2-(2,4-difluorophenyl)-3-(1H-1,2,4-triazol-1-yl)propan-2-ol], the MIC50 against CaCi2 is greater than 50 µM. On the same count and under the same terms, as for `[2H]C([2H])(NCC(O)(Cn1cncn1)c1ccc(F)cc1F)c1ccc2c(-c3ccncc3)c(-c3ccc(F)cc3)nn2c1` (centres unmarked) [Compound I-261, 2-(2,4-difluorophenyl)-1-(((2-(4-fluorophenyl)-3-(pyridin-4-yl)pyrazolo[1,5-a]pyridin-6-yl)methyl-d2)amino)-3-(1H-1,2,4-triazol-1-yl)propan-2-ol], the figure is 0.195 µM (≈ 0.109 µg/mL). On the same count and under the same terms, the result for `OC(Cn1cncn1)(c1ccc(F)cc1F)C(F)(F)c1ccc(-c2ccc(CNCc3ccc4c(-c5ccncc5)c(-c5ccc(F)cc5)nn4c3)cc2)cn1` (centres unmarked) [Compound I-262, 2-(2,4-difluorophenyl)-1,1-difluoro-1-(5-(4-((((2-(4-fluorophenyl)-3-(pyridin-4-yl)pyrazolo[1,5-a]pyridin-6-yl)methyl)amino)methyl)phenyl)pyridin-2-yl)-3-(1H-1,2,4-triazol-1-yl)propan-2-ol] reads 0.293 µM (≈ 0.222 µg/mL). In the case of `CN1Cc2nccc(-c3cn(CCC(O)(Cn4cncn4)c4ccc(F)cc4F)nc3-c3ccc(F)cc3)c2C1=O` (centres unmarked) [Compound I-2, 4-(1-(3-(2,4-difluorophenyl)-3-hydroxy-4-(1H-1,2,4-triazol-1-yl)butyl)-3-(4-fluorophenyl)-1H-pyrazol-4-yl)-6-methyl-6,7-dihydro-5H-pyrrolo[3,4-b]pyridin-5-one], in experiment [1], the IC50 was 107 nM. Still for that read-out and setting: the result for `Cn1cc(-c2ccnc3c2C(=O)N(CC2CCN(C[C@@](O)(Cn4cncn4)c4ccc(F)cc4F)CC2)C3)c(-c2ccc(F)cc2)n1` [Compound I-237, (R)-6-((1-(2-(2,4-difluorophenyl)-2-hydroxy-3-(1H-1,2,4-triazol-1-yl)propyl)piperidin-4-yl)methyl)-4-(3-(4-fluorophenyl)-1-methyl-1H-pyrazol-4-yl)-6,7-dihydro-5H-pyrrolo[3,4-b]pyridin-5-one] reads 1.14 nM.

Source of the values: patent US20260199483A1 (Bright Angel Therapeutics Inc., priority 2022, published 2026).
